Test: Analytical immobilized pH gradient (IPG) gels for determining pI values
Format: physicochemical
Conditions: analytical IPG gel, pH interval 8.0 to 9.0, mixture of 8M urea and 1% CHAPS
Excerpt: Preparation of Analytical Immobilized pH Gradient (IPG) Gels, for Determining the pI Values of the Main Component and of the Impurities
Gel dimension: 25×10 cm, 0, 5 mm thick; pH interval: 7.0 to 10.0.
The IPG ranges are set in a 5% T, 4% C polyacrylamide matrix, according to the preparation recipe disclosed in Ref. 110. After preparing the two limiting, acidic and basic mixtures, they are titrated (with a weak acid and a weak base) to pH values close to neutrality. This is important in order to ensure uniform polymerization and efficient monomer conversion throughout the preformed pH gradient. Upon gel washing in distilled water (3×30 min), all added titrants (as well as catalysts and ungrafted monomers) are efficiently removed. The gels are then equilibrated for 30 min in 2% glycerol solution, dried in air and reswollen in a mixture of 8M urea and 3.5% CHAPS, overnight. The sample is applied in surface wells at the anodic gel side in concentrations from 80 to 600 μg/track. […]
For exactly determining the pI value of the amide derivative of factor B0 and factor B1, the above procedure is repeated under the same conditions, in the pH interval from 8.0 to 9.0 using a mixture of 8M urea and 1% CHAPS. The so determined pI value of the amide derivative of factor B0 is 8.56, whilst the pI value of the amide derivative of factor B1 is 8.40.

pI value | Substance
8.56 | 6^B -decarboxy-6^B -(hydroxymethyl)-N^63 -3-(dimethyl-amino)propyl amide derivative of antibiotic A40926 factor B0 [amide derivative of factor B0]
8.40 | 6^B -decarboxy-6^B -(hydroxymethyl)-N^63 -3-(dimethyl-amino)propyl amide derivative of antibiotic A40926 factor B1 [amide derivative of factor B1]

From patent publication US5939523A, “Purification of dalbaheptide antibiotics by isoelectric focusing” (Gruppo Lepetit SpA, priority 1995, dated 1999)
